Data as given in ChEMBL document CHEMBL1151402, “Normaytancyprine, A Minor Antileukemic Ansa Macrolide From Putterlickia verrucosa” (1982).
Converted amounts (≈) assume the structure as drawn.

How the values were obtained:
P388 = test: In vivo cytotoxicity against mouse P388 cells at 0.4 to 12.5 mg/kg; type: functional; settings: dose mg/kg 0.4-12.5
KB = test: Cytotoxicity against human KB cells; type: functional; settings: read-out: ED50 (the source's name)

COc1cc2cc(c1Cl)NC(=O)C[C@H](OC(=O)[C@H](C)N(C)C(=O)C1C(C)C1C)[C@]1(C)O[C@H]1[C@H](C)[C@@H]1C[C@@](O)(NC(=O)O1)[C@H](OC)/C=C/C=C(\C)C2 (some centres not stated) [NORMAYTANCYPRINE]
T/C (P388): 145% | EC50 (KB): 0.001 ng/mL (≈ 0.00137 nM)
